Laboratory results: US20150237857A1, “ANTIBACTERIAL INHIBITORS” (MCMASTER UNIVERSITY, priority 2012, published 2015)
Converted amounts (≈) assume the structure as drawn. “Also recorded” adds a separate entry of the source. Where two headings read alike, the source gives them in different places.

Key:
E. coli MG1655 [1] = test: Metabolic suppression profiling (ChemArray); assay type: cell-based
recombinant E. coli BioA = recombinant E. coli BioA (Escherichia coli, UniProt P12995); test: BioA inhibition through a feeding assay of a bioA auxotroph; assay type: biochemical
Experimental: To determine if the step catalyzed by BioA was the target of this inhibitor, the inhibitory activity of MAC-0013772 against recombinant E. coli BioA was assayed through a feeding assay of a bioA auxotroph.

BioA = BioA (Escherichia coli, UniProt P12995); test: UV-visible spectra of BioA titrated with inhibitor; assay type: binding, E. coli
Experimental: To further determine if the inhibition of BioA by MAC13772 is mediated through the interaction of the hydrazine moiety in the compound with PLP in the active site of the enzyme, the UV-visible spectra of BioA was assessed when titrated with the inhibitor.

Mycobacteria smegmatis = test: MIC against Mycobacteria smegmatis in absence and presence of biotin; assay type: cell-based
Acinetobacter baumannii = test: Activity against other organisms; assay type: cell-based
Experimental: (§1) The activity of MAC13772 was tested against a number of organisms in addition to Escherichia coli using methods similar to those described in Example 2.

Bacillus subtilis = test: Activity against other organisms; assay type: cell-based
Experimental: as §1

Klebsiella pneumonia = test: Activity against other organisms; assay type: cell-based
Experimental: as §1

[2] = test system: Mycobacterium tuberculosis; test: Activity against other organisms; assay type: cell-based
Experimental: as §1

Salmonella typhimurium = test: Activity against other organisms; assay type: cell-based
Experimental: as §1

Staphylococcus aureus = test: Activity against other organisms; assay type: cell-based
Experimental: as §1

E. coli MG1655 [3] = test: Minimum inhibitory concentration (MIC) determination; details: for MIC: Escherichia coli; for effect of intermediates of biotin biosynthesis on inhibitory activity (in words): KAPA, DAPA, DTB, biotin in media; for Fold suppression: MIC with supplement / MIC without
Experimental: The MIC values were determined in liquid minimal media and minimal media supplemented with amino acids, vitamins and nucleobases.
A single colony of E. coli MG1655 was grown overnight in 5 ml of M9 minimal media. The saturated culture was diluted 1/50 in fresh minimal media and allowed to grow until the OD600 reached ˜0.4. […] After mixing of the bacterial culture with the compounds, the OD600 of the plates was read using Envision to account for background absorbance. The plates were then incubated in a 37° C. stationary incubator for 16 hours before measuring their OD600. After subtracting any background absorbance contributed by colored or precipitated compounds, the MIC was defined as the lowest concentration of antibiotic that inhibits visible growth.

[4] = test system: E. coli wild-type, ΔltaEΔtdh and ΔltaEΔtdhΔkbl strains
[5] = biological target: T1, recombinant PabA, PabB and PabC (Escherichia coli, UniProt P00903+P05041+P28305); test: biochemical; design: species or system E. coli
T1 construct: poly-histidine (pDEST17) (N); made in house; host or cells: E. coli BL21AI (pDEST17, arabinose induction)
Experimental: Enzyme assays were conducted in triplicate at room temperature with 25 nM of PabA and PabB, 50 nM of PabC, 50 mM Tris-HCl (pH 7.5), 20 μM PLP, 1 mM L-glutamine, 40 μM chorismate and the indicated concentrations of MAC-173979. The inhibition assays were initiated by addition of a mixture of the three enzymes and quenched with an equal volume of freshly prepared 8M urea. The reaction progress curves were monitored every 10 minutes for 60 minutes and determined by a stopped HPLC-assay that allowed for the quantification of the conversion of chorismate to PABA. The two compounds were separated on a C18 reverse phase column (Nova-Pak C18, 4 μm, 3.9×150 mm, Waters) and eluted isocratically with 5% acetic acid in double distilled H2O. The analytes were visualized by UV absorbance at 275 nm and identified by comparing their retention times and UV absorption spectra to authentic standards. The progress curves were plotted to the rate equation of slow-binding inhibition: […]
using Sigma Plot 12.0 (SPSS, Inc., Chicago, Ill.), where v0 and vs are the initial and final steady-state reaction velocities, respectively, t is the time and kobs is the apparent first order rate constant for the interconversion between the initial and steady-state rates.
In order to directly test the biochemical activity of MAC-0173979 on PABA synthesis, an HPLC-based one-pot enzyme assay using recombinant PabA, PabB and PabC was set up and the formation of PABA was monitored by measuring its absorbance at 275 nm.
MAC173979 and an analog lacking the Michael acceptor (0-1000 μM) were each incubated with the PABA enzymes for 30 minutes prior to substrate addition. Reactions were quenched after 30 minutes with 8 M urea and analyzed by HPLC.

T1 sequence (P00903 whole entry): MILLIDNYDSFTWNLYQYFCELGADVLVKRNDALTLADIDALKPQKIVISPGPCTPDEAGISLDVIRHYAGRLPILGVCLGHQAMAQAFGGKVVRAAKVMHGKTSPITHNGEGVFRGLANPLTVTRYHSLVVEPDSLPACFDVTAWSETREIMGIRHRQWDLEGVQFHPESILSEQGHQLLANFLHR
T1 sequence (P05041 whole entry): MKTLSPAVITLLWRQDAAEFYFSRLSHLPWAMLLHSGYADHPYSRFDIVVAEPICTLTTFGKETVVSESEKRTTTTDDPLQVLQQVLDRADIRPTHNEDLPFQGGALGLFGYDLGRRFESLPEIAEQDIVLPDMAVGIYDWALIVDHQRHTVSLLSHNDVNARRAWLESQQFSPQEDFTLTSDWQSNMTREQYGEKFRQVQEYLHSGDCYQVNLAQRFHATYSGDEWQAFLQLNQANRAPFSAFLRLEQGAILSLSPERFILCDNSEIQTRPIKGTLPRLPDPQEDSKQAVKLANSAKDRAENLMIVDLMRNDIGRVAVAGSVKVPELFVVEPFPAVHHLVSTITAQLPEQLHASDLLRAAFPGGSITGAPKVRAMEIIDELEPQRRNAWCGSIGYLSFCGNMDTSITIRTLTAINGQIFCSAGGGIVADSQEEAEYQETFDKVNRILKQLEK
T1 sequence (P28305 whole entry): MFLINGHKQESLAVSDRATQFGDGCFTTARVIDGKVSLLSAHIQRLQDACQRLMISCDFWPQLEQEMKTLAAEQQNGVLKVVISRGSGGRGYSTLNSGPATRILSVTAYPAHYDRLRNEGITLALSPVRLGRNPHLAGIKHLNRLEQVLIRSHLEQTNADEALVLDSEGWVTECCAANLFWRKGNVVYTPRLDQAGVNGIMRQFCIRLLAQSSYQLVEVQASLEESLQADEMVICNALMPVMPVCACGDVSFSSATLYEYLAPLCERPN
Chain of BioA (P12995 whole entry): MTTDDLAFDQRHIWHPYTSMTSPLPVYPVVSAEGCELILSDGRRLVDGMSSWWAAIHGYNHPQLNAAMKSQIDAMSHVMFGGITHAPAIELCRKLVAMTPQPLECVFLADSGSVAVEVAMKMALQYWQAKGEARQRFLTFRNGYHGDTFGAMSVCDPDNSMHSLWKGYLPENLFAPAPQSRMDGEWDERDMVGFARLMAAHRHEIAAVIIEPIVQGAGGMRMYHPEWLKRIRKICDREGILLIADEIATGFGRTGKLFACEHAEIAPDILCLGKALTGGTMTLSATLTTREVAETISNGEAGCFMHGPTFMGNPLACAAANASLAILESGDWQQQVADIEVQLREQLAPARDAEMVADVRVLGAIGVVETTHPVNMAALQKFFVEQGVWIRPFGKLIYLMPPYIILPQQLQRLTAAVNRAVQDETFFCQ
Chain of recombinant E. coli BioA (P12995 whole entry): as above

SMILES: NNC(=O)CSc1ccccc1[N+](=O)[O-] [MAC13772, 2-(2-nitrophenylthio) acetohydrazide]
- suppression of growth inhibitory activity by biotin (E. coli MG1655 [1]; biotin in the growth media): uniquely suppressed by biotin
- IC50 (recombinant E. coli BioA): ~0.25 µM
- stoichiometry of protein-ligand interaction (molar ratio plot) (BioA; [inhibitor]/[BioA]): stoichiometric
- λmax of PLP-bound BioA after interaction with inhibitor (BioA; shift from 420 nm (internal aldimine) to PLP-inhibitor adduct): 393 nm
- MIC (Mycobacteria smegmatis; absence of biotin, read-out: MIC −bio): 4 µg/mL
- MIC (Mycobacteria smegmatis; presence of 2 nM of biotin, read-out: MIC +bio): > 256 µg/mL
- antibacterial activity (Acinetobacter baumannii): active
- antibacterial activity (Bacillus subtilis): active
- antibacterial activity (Klebsiella pneumonia): active
- antibacterial activity [2]: active
- antibacterial activity (Salmonella typhimurium): active
- antibacterial activity (Staphylococcus aureus): active
- MIC (E. coli MG1655 [3]; MG1655, read-out: MIC −bio, absence of biotin): 8 µg/mL (≈ 35.2 µM)
- MIC (E. coli MG1655 [3]; MG1655, supplement: AA + VIT + NUC): > 256 µg/mL
- MIC (E. coli MG1655 [3]; MG1655, supplement: BIOTIN): > 256 µg/mL
- MIC (E. coli MG1655 [3]; MG1655, supplement: DAPA): > 256 µg/mL
- MIC (E. coli MG1655 [3]; MG1655, supplement: DTB): > 256 µg/mL
- MIC (E. coli MG1655 [3]; MG1655, supplement: KAPA): 8 µg/mL (≈ 35.2 µM)
- effect of intermediates of biotin biosynthesis on inhibitory activity (in words) (E. coli MG1655 [3]; listed as MAC-0013372): KAPA had no effect
- effect of intermediates of biotin biosynthesis on inhibitory activity (in words) (E. coli MG1655 [3]; listed as MAC-0013772): fully reversed by DAPA, DTB and biotin
- Fold suppression (E. coli MG1655 [3]; supplement: AA + VIT + NUC): 32
- Fold suppression (E. coli MG1655 [3]; supplement: BIOTIN): 32
- Fold suppression (E. coli MG1655 [3]; supplement: DAPA): 32
- Fold suppression (E. coli MG1655 [3]; supplement: DTB): 32
- Fold suppression (E. coli MG1655 [3]; supplement: KAPA): 1

SMILES: COc1ccc(C(=O)CCN(C)C)cc1 [MAC-0168425, 3-(dimethylamino)-1-(4-methoxyphenyl)propan-1-one]
- suppression of growth inhibitory activity by L-serine (E. coli MG1655 [1]; 4× MIC in M9 minimal media, L-serine): not suppressed
- suppression of growth inhibitory activity by L-threonine (E. coli MG1655 [1]; 4× MIC in M9 minimal media, L-threonine): partially suppressed
- suppression of growth inhibitory activity by glycine (E. coli MG1655 [1]; 4× MIC in M9 minimal media, glycine): strongly suppressed
- fold shift in MIC ([4]; wild-type strain, 40-640 μg/ml L-threonine): 4-8 fold
- fold shift in MIC ([4]; ΔltaEΔtdh double deletion strain, 320-640 μg/ml L-threonine): 2 fold
- suppression of activity by L-threonine ([4]; ΔltaEΔtdhΔkbl triple deletion mutant): completely lost

SMILES: O=C(C=C(Cl)Cl)c1cccc([N+](=O)[O-])c1 [MAC-0173979, 3,3-dichloro-1-(3-nitrophenyl)prop-2-en-1-one]
- suppression of growth inhibitory activity by p-aminobenzoic acid (PABA) (E. coli MG1655 [1]; 4× MIC in M9 minimal media, PABA in growth media): suppressed; also recorded: fully reversed
- suppression of growth inhibitory activity by methionine (E. coli MG1655 [1]; 4× MIC in M9 minimal media, methionine in growth media): to a certain extent; also recorded: fully reversed
- IC50 [5]: 30 ± 2 µM
- Ki [5]: 7.3 ± 1.3 µM
- mechanism of inhibition of PABA synthesis ([5]; progress curves, kobs plot): irreversible time-dependent inhibitor
- fold suppression of MIC on addition of PABA (E. coli MG1655 [3]; PABA added to the growth media): 16 fold

SMILES: O=C(CC(Cl)Cl)c1cccc([N+](=O)[O-])c1 [analog lacking the Michael acceptor, 3,3-dichloro-1-(3-nitrophenyl)propan-1-one]
- IC50 [5]: 60 ± 7 µM
